Assay [1] has as its target T1, CDK2/CyclinA (Homo sapiens, UniProt P24941).
T1 construct: purchased Invitrogen PV3267
The assay can be described thus: In vitro kinase activity assay (PKLight), CDK2/Cyclin A. The assay is classed as biochemical. Particulars: 0.5 μM ATP. As to the method: (§1) The recombinant enzymes (CDK2/CyclinA, FLT3, JAK2 and JAK2 V617F) were purchased from Invitrogen (Cat #PV3267, 3182, 4210 and 4347 respectively). All assays were carried out in 384-well white microtiter plates using the PKLight assay system from Cambrex (East Rutherford, N.J.). This assay platform is essentially a luminometric assay for the detection of ATP in the reaction using a luciferase-coupled reaction. For CDK2/Cyclin A assay, the reaction mixture consisted of the following components in 25 μL assay buffer (50 mM Hepes pH 7.5, 10 mM MgCl2, 5 mM MnCl2, 5 mM BGP, 1 mM DTT, 0.1 mM sodium orthovanadate), 1.4 μg/mL of CDK2/Cyclin A complex, 0.5 μM of RbING substrate (Invitrogen, Cat #PV2939) and 0.5 μM of ATP. The compounds were tested at 8 concentrations prepared from 4-fold serial dilution starting at 10 μM. The reaction was incubated at room temperature for 2 hr. 13 μL of PKLight ATP detection reagent was added and the reaction was incubated for 10 min. Luminescence signals were detected on a multi-label plate reader (Victor^2 V 1420, Perkin-Elmer). The other kinase assays were identical except for the following differences in reagents. For FLT3 assays, the reaction contained 2.0 μg/mL FLT3 enzyme, 5 μM of poly(Glu,Tyr) substrate (Sigma, Cat #P0275) and 4 μM of ATP. For JAK2 assays, the reaction contained 0.6 μg/mL of JAK2 enzyme, 2 μM of poly(Glu,Ala,Tyr) substrate (Sigma, Cat #P3899) and 0.2 μM of ATP. For JAK2 V617F mutant assays, the reaction contained 8.0 μg/mL of JAK2 mutant enzyme, 2 μM of poly(Glu,Ala,Tyr) substrate (Sigma, Cat #P3899) and 0.2 μM of ATP. The analytical software, Prism 4.0 (GraphPad Software Pte Ltd) was used to generate IC50 values from the data.

Assay [2] relates to HEL92.1.7 (erythroleukemia cell line). Briefly: Cell-based proliferation assay for GI50, HEL92.1.7. Particulars: Homo sapiens, HEL 92.1.7; HEL92.1.7 cells, 96 h treatment. The protocol: (§2) Human cancer cell lines HL60 (acute myeloid leukemia cell line), Colo205 (colon adenocarcinoma cell line), HEL92.1.7 (erythroleukemia cell line) and MV4-11 (acute myeloid leukemia cell line) were obtained from ATCC. They were cultivated in the media according to the ATCC work instructions. Colo205 cells were seeded in 96-wells plate at 5000 cells per well. HEL92.1.7 and MV4-11 cells were seeded at 6000 cells per well while HL60 cells were seeded at 8000 cells per well in 96 well plate. The plates were incubated at 37° C., 5% CO2, for 24 h. Cells were treated with compounds at various concentrations for 96 h. Cell growth was then monitored using Celltiter96 Aqueous One Solution Cell Proliferation Assay from Promega (Madison Wis.). Dose response curves were plotted to determine GI50 values for the compounds using XL-fit (ID Business Solution, Emeryville, Calif.).

For assay [3], the target named is T2, FLT3 (Homo sapiens, UniProt P36888).
T2 construct: purchased Invitrogen PV3182
T2 sequence (P36888 27-993): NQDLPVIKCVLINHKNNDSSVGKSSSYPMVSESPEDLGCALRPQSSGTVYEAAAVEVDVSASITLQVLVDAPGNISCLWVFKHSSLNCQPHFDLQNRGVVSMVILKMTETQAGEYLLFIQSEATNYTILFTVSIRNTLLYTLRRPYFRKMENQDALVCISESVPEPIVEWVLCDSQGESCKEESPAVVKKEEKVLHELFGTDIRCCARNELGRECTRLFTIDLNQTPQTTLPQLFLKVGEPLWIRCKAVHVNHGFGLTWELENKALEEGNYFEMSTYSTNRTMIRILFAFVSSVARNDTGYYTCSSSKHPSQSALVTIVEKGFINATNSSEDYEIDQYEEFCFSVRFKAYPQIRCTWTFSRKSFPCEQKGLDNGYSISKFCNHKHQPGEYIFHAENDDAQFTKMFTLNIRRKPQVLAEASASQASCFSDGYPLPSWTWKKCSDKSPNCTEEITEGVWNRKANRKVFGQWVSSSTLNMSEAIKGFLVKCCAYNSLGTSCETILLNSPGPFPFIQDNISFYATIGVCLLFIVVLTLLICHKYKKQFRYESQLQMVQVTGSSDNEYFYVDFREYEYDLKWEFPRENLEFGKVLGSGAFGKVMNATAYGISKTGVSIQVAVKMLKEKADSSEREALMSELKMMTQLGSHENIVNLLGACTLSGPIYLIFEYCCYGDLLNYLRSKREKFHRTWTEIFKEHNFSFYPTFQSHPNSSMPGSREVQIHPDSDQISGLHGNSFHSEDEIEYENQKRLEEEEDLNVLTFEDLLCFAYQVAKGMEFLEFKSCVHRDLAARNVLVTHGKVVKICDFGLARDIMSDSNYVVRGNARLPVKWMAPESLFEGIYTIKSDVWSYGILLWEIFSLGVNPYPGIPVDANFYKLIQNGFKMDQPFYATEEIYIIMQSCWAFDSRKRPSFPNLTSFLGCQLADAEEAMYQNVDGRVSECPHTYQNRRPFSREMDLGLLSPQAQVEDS
The assay can be described thus: In vitro kinase activity assay (PKLight), FLT3. It is filed as biochemical. The protocol: as §1, with “All” for “The recombinant enzymes (CDK2/CyclinA, FLT3, JAK2 and JAK2 V617F) were purchased from Invitrogen (Cat #PV3267, 3182, 4210 and 4347 respectively). All”, “For JAK2 V617F mutant assays, the reaction contained 8.0 μg/mL of JAK2 mutant enzyme, 2 μM of poly(Glu,Ala,Tyr) substrate (Sigma, Cat #P3899) and 0.2 μM of ATP.” left out

The subject of assay [4] is MV4-11 (acute myeloid leukemia cell line). The assay can be described thus: Cell-based proliferation assay for GI50, MV4-11. Particulars: Homo sapiens; MV4-11 cells, 96 h treatment. As to the method: as §2
Assay [5] deals with HL60 (acute myeloid leukemia cell line). Briefly: Cell-based proliferation assay for GI50, HL60. Particulars: Homo sapiens, HL-60; HL60 cells, 96 h treatment. The protocol: as §2
Assay [6] addresses T3, JAK2 (Homo sapiens, UniProt O60674).
T3 construct: purchased Invitrogen PV4210
The assay can be described thus: In vitro kinase activity assay (PKLight), JAK2. It is filed as biochemical. As to the method: as §1, with “All” for “The recombinant enzymes (CDK2/CyclinA, FLT3, JAK2 and JAK2 V617F) were purchased from Invitrogen (Cat #PV3267, 3182, 4210 and 4347 respectively). All”, “For JAK2 V617F mutant assays, the reaction contained 8.0 μg/mL of JAK2 mutant enzyme, 2 μM of poly(Glu,Ala,Tyr) substrate (Sigma, Cat #P3899) and 0.2 μM of ATP.” left out

For assay [7], the target named is T4, JAK2 V617F (Homo sapiens, UniProt O60674, V617F).
T4 construct: purchased Invitrogen PV4347
Briefly: In vitro kinase activity assay (PKLight), JAK2 V617F mutant. The assay is classed as biochemical. As to the method:
as §1, with “All” for “The recombinant enzymes (CDK2/CyclinA, FLT3, JAK2 and JAK2 V617F) were purchased from Invitrogen (Cat #PV3267, 3182, 4210 and 4347 respectively). All”, “For JAK2 V617F mutant assays, the reaction contained 8.0 μg/mL of JAK2 mutant enzyme, 2 μM of poly(Glu,Ala,Tyr) substrate (Sigma, Cat #P3899) and 0.2 μM of ATP.” left out

The subject of assay [8] is Colo205 (colon adenocarcinoma cell line). Briefly: Cell-based proliferation assay for GI50, Colo205. Particulars: Homo sapiens, COLO 205; Colo205 cells, 96 h treatment. As to the method: as §2

T3 sequence (O60674 whole entry): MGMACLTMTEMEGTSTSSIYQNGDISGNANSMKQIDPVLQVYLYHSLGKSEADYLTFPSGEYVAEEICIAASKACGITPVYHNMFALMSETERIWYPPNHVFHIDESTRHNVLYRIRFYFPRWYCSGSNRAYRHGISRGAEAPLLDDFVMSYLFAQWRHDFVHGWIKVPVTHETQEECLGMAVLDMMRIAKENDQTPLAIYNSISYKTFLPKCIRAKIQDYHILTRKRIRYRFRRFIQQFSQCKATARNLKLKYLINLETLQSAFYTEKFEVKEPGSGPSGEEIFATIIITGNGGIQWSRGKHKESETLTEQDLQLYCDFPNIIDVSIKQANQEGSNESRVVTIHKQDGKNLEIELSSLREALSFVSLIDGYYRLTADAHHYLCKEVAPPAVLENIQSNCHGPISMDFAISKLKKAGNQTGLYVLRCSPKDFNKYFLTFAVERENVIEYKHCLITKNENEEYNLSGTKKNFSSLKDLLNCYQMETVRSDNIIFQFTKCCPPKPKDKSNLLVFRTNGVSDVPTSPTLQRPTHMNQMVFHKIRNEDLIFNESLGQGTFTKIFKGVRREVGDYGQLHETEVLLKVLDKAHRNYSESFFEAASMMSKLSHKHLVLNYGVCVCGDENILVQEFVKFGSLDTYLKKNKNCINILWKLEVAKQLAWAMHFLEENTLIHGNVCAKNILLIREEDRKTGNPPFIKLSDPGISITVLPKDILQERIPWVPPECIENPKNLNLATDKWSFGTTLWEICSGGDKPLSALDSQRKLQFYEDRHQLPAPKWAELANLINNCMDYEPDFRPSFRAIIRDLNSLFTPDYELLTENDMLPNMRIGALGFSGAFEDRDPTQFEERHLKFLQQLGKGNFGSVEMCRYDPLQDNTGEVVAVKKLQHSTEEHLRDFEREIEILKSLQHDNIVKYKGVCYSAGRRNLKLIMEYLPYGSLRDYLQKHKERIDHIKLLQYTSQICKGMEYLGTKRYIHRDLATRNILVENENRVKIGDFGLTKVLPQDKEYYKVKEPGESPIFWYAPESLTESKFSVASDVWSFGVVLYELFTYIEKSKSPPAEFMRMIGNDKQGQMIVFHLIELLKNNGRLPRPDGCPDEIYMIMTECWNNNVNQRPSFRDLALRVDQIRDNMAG
T4 sequence (O60674 whole entry V617F): as the sequence (O60674 whole entry) above, with V617F counted along it

Consider `CCN(CC)CCOc1ccc2cc1COC/C=C/CCOc1cccc(c1)-c1nc(ncc1C)N2` [Compound 29], for which the concentration for half-maximal inhibition (IC50) in assay [1] was more than 5000 nM; in assay [3] it was not above 1000 nM; in assay [6], not above 1000 nM; in assay [7], not above 1000 nM. The GI50 in assay [2] was 1000 to 5000 nM; in assay [4], not above 1000 nM; in assay [5] it was not above 1000 nM.
As for `CCN(CC)CCOc1ccc2cc1COC/C=C/CCOc1cc(ccc1OC)-c1ccnc(n1)N2` [Compound 20], the IC50 in assay [1] was more than 5000 nM; in assay [3] it was not above 1000 nM; in assay [6], not above 1000 nM; in assay [7], not above 1000 nM. In addition, the GI50 is more than 5000 nM in assay [2], not above 1000 nM in assay [4], more than 5000 nM in assay [8] and 1000 to 5000 nM in assay [5].
Take `CCN(CC)CCOc1ccc2cc1COC/C=C/CCOc1cccc(c1)-c1ccnc(n1)N2` [Compound 19]: the IC50 is more than 5000 nM in assay [1], not above 1000 nM in assay [3], not above 1000 nM in assay [6] and not above 1000 nM in assay [7]. Moreover, the GI50 in assay [2], in assay [4], in assay [8] and in assay [5] was not above 1000 nM in each case.
For the compound `CCN(CC)CCOc1ccc2cc1COC/C=C/COCc1cccc(c1)-c1ccnc(n1)N2` [Compound 15], the IC50 is 1000 to 5000 nM in assay [1], not above 1000 nM in assay [3], not above 1000 nM in assay [6] and not above 1000 nM in assay [7]. Also, the GI50 in assay [2] is 1000 to 5000 nM; in assay [4], not above 1000 nM; in assay [8], 1000 to 5000 nM; in assay [5], not above 1000 nM.
In the case of `COc1ccc2cc1COC/C=C/COCc1cc(ccc1OCCN1CCCC1)Nc1nccc-2n1` [Compound 14], the IC50 in assay [1] is more than 5000 nM; in assay [3], not above 1000 nM; in assay [6] it was not above 1000 nM; in assay [7], not above 1000 nM. For the same compound, the 50% growth inhibitory concentration (GI50) in assay [2] was not above 1000 nM; in assay [4], not above 1000 nM; in assay [8], 1000 to 5000 nM; in assay [5] it was not above 1000 nM.

By IC50 is commonly meant the midpoint of a concentration-inhibition curve. A high value points to lower potency. What is called GI50 is the concentration that inhibits growth by half.

The values above are taken from patent US9573964B2, “Oxygen linked pyrimidine derivatives” (CTI BIOPHARMA CORP., priority 2005, dated 2017).
